For 1 compound, IC50 results are on record in ChEMBL document CHEMBL3588795, “GPCR crystal structures: Medicinal chemistry in the pocket” (Bioorg Med Chem, 2015).

The target of this assay is Metabotropic glutamate receptor 1 (Homo sapiens, UniProt Q13255). Kind of assay: Negative allosteric modulation of human mGluR1alpha expressed in syrian hamster AV-12 cells assessed as inhibition of quisqualate-induced phosphoinositide hydrolysis. The class given is cell-based, AV12.
Chain of Metabotropic glutamate receptor 1 (Q13255 whole entry): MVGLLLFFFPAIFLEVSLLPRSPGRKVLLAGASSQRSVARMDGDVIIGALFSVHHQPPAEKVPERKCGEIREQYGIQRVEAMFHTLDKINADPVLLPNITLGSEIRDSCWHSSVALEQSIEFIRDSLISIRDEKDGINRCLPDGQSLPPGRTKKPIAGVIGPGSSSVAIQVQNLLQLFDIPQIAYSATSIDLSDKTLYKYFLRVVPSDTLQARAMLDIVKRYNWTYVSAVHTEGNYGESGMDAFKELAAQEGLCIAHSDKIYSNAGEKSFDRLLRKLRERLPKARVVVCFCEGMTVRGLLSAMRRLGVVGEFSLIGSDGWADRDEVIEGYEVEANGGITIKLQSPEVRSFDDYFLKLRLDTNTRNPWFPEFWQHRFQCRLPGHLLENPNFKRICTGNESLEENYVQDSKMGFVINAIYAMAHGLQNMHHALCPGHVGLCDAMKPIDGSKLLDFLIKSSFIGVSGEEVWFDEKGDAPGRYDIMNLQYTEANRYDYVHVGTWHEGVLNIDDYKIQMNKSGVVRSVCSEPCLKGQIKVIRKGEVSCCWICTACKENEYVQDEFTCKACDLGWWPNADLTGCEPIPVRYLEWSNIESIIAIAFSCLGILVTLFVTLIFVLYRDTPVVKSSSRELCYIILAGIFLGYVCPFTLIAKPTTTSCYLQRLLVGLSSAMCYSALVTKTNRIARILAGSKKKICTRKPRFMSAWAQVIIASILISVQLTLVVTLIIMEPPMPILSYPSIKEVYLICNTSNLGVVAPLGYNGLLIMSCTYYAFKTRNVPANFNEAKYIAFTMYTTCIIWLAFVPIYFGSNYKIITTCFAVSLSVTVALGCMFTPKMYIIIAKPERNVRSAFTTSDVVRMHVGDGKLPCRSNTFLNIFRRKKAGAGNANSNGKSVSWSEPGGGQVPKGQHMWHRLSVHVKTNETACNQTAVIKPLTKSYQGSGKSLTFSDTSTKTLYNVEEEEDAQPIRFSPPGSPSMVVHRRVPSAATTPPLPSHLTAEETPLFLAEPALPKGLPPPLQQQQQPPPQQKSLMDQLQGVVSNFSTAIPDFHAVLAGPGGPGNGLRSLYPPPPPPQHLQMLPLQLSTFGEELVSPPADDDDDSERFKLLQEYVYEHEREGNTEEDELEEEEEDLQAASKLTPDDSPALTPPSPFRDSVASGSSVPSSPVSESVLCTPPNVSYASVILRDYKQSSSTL

By IC50 is commonly meant the concentration that gives 50% inhibition. For `Cc1cc(C(=O)O)ccc1[C@H](N)C(=O)O`, the IC50 came to 8 µM.
